# Laboratory results taken from ChEMBL document CHEMBL1201862, “PubChem BioAssay data set” (2004).
#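 A five-concentration, 48-hour dose response in 96-well plates underlies each endpoint, interpolated linearly between surrounding concentrations. Here, GI50 denotes the concentration required for 50% inhibition of growth.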 Active and inactive are the calls of the source. Rule as the data show it: active = GI50 up to about 1.1 µM and inactive = higher.
# Tests used:
# Assay in all cases: NCI tumour cell line growth inhibition, 48 h
# MOLT-4 = system: MOLT-4
# HL-60 = system: HL-60
# UO-31 = system: UO-31
# SNB-75 = system: SNB-75
# SNB-19 = system: SNB-19
# SN12C = system: SN12C
# U-251 = system: U-251
# Malme-3M = system: Malme-3M
# TK-10 = system: TK-10
# SK-MEL-2 = system: SK-MEL-2
# OVCAR-5 = system: OVCAR-5
# UACC-62 = system: UACC-62
# K562 = system: K562
# CCRF-CEM = system: CCRF-CEM
# RPMI-8226 = system: RPMI-8226
# SW-620 = system: SW-620
# SK-MEL-5 = system: SK-MEL-5
# HCT-15 = system: HCT-15
# SF-295 = system: SF-295
# HOP-92 = system: HOP-92
Compound,GI50 (MOLT-4),GI50 (HL-60),GI50 (UO-31),GI50 (SNB-75),GI50 (SNB-19),GI50 (SN12C),GI50 (U-251),GI50 (Malme-3M),GI50 (TK-10),GI50 (SK-MEL-2),GI50 (OVCAR-5),GI50 (UACC-62),GI50 (K562),GI50 (CCRF-CEM),GI50 (RPMI-8226),GI50 (SW-620),GI50 (SK-MEL-5),GI50 (HCT-15),GI50 (SF-295),GI50 (HOP-92)
Cc1cc(C)nc(NS(=O)(=O)c2ccc(NC(=O)c3cccc4c(Nc5ccc(S(=O)(=O)Nc6cc(C)on6)cc5)c5ccccc5nc34)cc2)n1,25.4 µM (inactive),26.5 µM (inactive),35 µM (inactive),23.3 µM (inactive),15.7 µM (inactive),23 µM (inactive),18.4 µM (inactive),18 µM (inactive),34.4 µM (inactive),19.5 µM (inactive),16.7 µM (inactive),20.3 µM (inactive),28.7 µM (inactive),28.8 µM (inactive),–,–,–,–,–,–
COc1ccc2c(c1)OC(c1ccccc1O)CC2=O (stereo not drawn),26.1 µM (inactive),–,18.1 µM (inactive),30.9 µM (inactive),> 100 µM (inactive),41.5 µM (inactive),44.5 µM (inactive),47.3 µM (inactive),> 100 µM (inactive),26.6 µM (inactive),> 100 µM (inactive),–,28.3 µM (inactive),30.5 µM (inactive),23.9 µM (inactive),40.6 µM (inactive),40 µM (inactive),27.2 µM,45.7 µM (inactive),–
CCOC(=O)C1(C#N)C(c2ccccc2)CC(O)(c2ccc(OC)cc2)C(C(=O)c2ccc(OC)cc2)C1c1ccccc1 (stereo not drawn),> 100 µM (inactive),> 100 µM (inactive),74.6 µM (inactive),27.7 µM (inactive),32.4 µM (inactive),> 100 µM (inactive),> 100 µM (inactive),> 100 µM (inactive),> 100 µM (inactive),> 100 µM (inactive),> 100 µM (inactive),> 100 µM (inactive),> 100 µM (inactive),> 100 µM (inactive),> 100 µM (inactive),> 100 µM (inactive),> 100 µM (inactive),> 100 µM,> 100 µM (inactive),–
CCCCCCCc1cscc1-c1cscc1Br,20.2 µM (inactive),–,35.6 µM (inactive),25.8 µM (inactive),70.1 µM (inactive),69.5 µM (inactive),39.3 µM (inactive),42.1 µM (inactive),> 100 µM (inactive),16.6 µM (inactive),39.3 µM (inactive),70 µM (inactive),53.1 µM (inactive),18.2 µM (inactive),18.5 µM (inactive),42.8 µM (inactive),28.4 µM (inactive),36.1 µM,26 µM (inactive),–
Nc1ncnc2c1ncn2C1C(O)C=C(CO)C1O (stereo not drawn),–,467 µM (inactive),> 625 µM (inactive),–,> 625 µM (inactive),> 625 µM (inactive),–,> 625 µM (inactive),–,> 625 µM (inactive),–,> 625 µM (inactive),–,–,> 625 µM (inactive),> 625 µM (inactive),> 625 µM (inactive),> 625 µM,> 625 µM (inactive),568 µM (inactive)
O=c1c2cc(I)ccc2nc(-c2cccs2)n1O,34.8 µM (inactive),34.3 µM (inactive),49 µM (inactive),–,22.2 µM (inactive),45 µM (inactive),30.1 µM (inactive),–,24.6 µM (inactive),48.6 µM (inactive),44.8 µM (inactive),90.6 µM (inactive),48.3 µM (inactive),27.7 µM (inactive),27 µM (inactive),37 µM (inactive),45.1 µM (inactive),33.9 µM,31.1 µM (inactive),28.1 µM (inactive)
S=C=NCCc1ccccc1 [PHENETHYLISOTHIOCYANATE],0.53 µM (active),0.385 µM (active),1.59 µM (inactive),2.65 µM (inactive),1.73 µM (inactive),0.319 µM (active),0.794 µM (active),0.964 µM (active),0.813 µM (active),0.402 µM (active),1.55 µM (inactive),0.839 µM (active),0.226 µM (active),0.186 µM (active),0.179 µM (active),0.31 µM (active),0.325 µM (active),0.228 µM,1.57 µM (inactive),–
